From patent US7714014B2, “Targeting GLI proteins in human cancer by small molecules” (The Regents of the University of California, priority 2005, dated 2010)

Legend:
[1] = tested on: Hedgehog signaling pathway in HT29 tumor; assay: Semi-quantitative RT-PCR of Hh pathway genes in xenograft tumors; assay type: in vivo, mouse; conditions: HT29 xenograft tumor (negative control)
Procedure: (§1) To examine whether the lead compound FN1-8 suppressed tumor growth through inhibition of the Hedgehog signaling pathway in vivo, expression of the key components and direct target genes of the Hh pathway (e.g., Shh, Ptch1, Gli1, Gli2, Gli3, Dvl-3) were analyzed by semi-quantitative RT-PCR using total RNA isolated from the xenograft tumors. GAPDH served as a control. This RT-PCR analysis was performed using a “pooled” tumor from two randomly selected mice of each group with reasonable size tumors.

[2] = tested on: Hedgehog signaling pathway in NSCLC tumor (H460); assay: as above; assay type: in vivo, mouse
Procedure: as §1

[3] = tested on: NSCLC H460 tumor; assay: Mouse Xenograft Model (NSCLC H460); assay type: in vivo
Procedure: The small molecule compound FN1-8 was tested in vivo in the mouse xenograft model bearing human cancer cells. Briefly, female athymic nude mice strain NCRNU-M (5-10 weeks old, 20-25 grams in weight; Taconic, Germantown, N.Y.) was maintained in pathogen-free conditions. Three human cancer cell lines: NSCLC H460, melanoma LOX, (both showing Gli3 activation), and colon cancer HT29 (no Gli3 activation, as a negative control), were used. Ten mice were used in each group and injected s.c. with 3×10^6 cancer cells in the dorsal area in a volume of 100 μl. After inoculation, human cancer cells were allowed to grow in mice for 7 days to become visible tumor nodules. Animals were then injected with small molecule compound FN1-8 at a dose of 50 mg/kg body weight (1 mg/mouse per day). DMSO alone was used as control. The compounds and controls were adjusted in 40 ul volume for i.p. injection in the abdomens of the mice. One mouse was sacrificed within 1 hour after the compound injection (after 6 injections) and its blood was collected. Then mass spectrometry was used to analyze the compound level in the blood sample to confirm the compound absorption into the blood stream of the mice. […] Tumor size was measured every three days, and tumor volumes were calculated using width (x) and length (y) (x^2y/2, where x<y). […]
In vivo efficacy study of small molecule compound FN1-8 were performed using a Mouse Xenograft Model (NSCLC H460). […] Tumor size (length and width according to their shapes) was measured with a caliper every three days. Tumor volumes were calculated using the equation […].
Three weeks after the initial tumor inoculation and the treatment as described above, tumors were dissected from the mice of each group and their weights were measured using a scale.
The in vivo efficacy study of small molecule compounds FN1-5 and FN1-8 in the Mouse Xenograft Model (NSCLC H460) was repeated using lower doses of the compounds. […] 24 days after the initial tumor inoculation, tumors were dissected from the mice of each group and their weights were measured using a scale. […]

[4] = Body weight of mice after in vivo treatment; set-up: species or system mouse; conditions: three weeks after tumor inoculation and treatment
Procedure: As one preliminary in vivo toxicity study of FN1-8, it was examined if there was loss of body weight in the mice after the FN1-8 treatment. Three weeks after the initial tumor inoculation and the treatment as described in the previous examples, body weights of DMSO control group (n=11) and FN1-8 treated group (n=8) were measured using a scale.

[5] = tested on: GLI1, GLI2 and GLI/TAFII31 induced transcription in NSCLC A549 cells; assay: 6xGLI BS-luciferase reporter assay (GLI / TAFII31 co-expression); assay type: cell-based, human; conditions: for reduction of transcription activity (6xGLI BS-luciferase): 20 μM, 16-20 hours
Procedure: One day before transfection, cells (1×10^5) were plated in 12-well plates with growth medium without antibiotics. When cells reached 80-90% of confluence they were co-transfected using 0.5 μg of each promoter construct in pGL3Basic vector and 0.025 μg pRL-TK Vector (Promega; Madison, Wis.) containing Renilla Luciferase as an internal control for the transformation efficiency. Lipofectamine 2000™ (Invitrogen Life Technologies) was used to mediate transfection for about 6 hours. Then the medium was replaced with fresh medium containing various small molecule compounds at a concentration of 30 μM, and the resulting cells were cultured for an additional 18-24 hours and subjected to luciferase assay. Briefly, cells were lysed in a lysis buffer and Firefly and Renilla Luciferase activities in cells of each well, were measured using Dual-Luciferase Assay System (Promega) and an illuminometer. The measured luciferase activities were normalized to pRL-TK Vector activity and were given relative to the basal activity of empty pGL3-Basic Vector, which was set to unity. The data shown represent mean values (±S.D.). All measurements were performed in triplicate and repeated in at least three independent experiments. The human Wnt-2 promoter-luciferase construct, the human SOCS3 promoter-Luciferase construct and the human Gremlin promoter-luciferase construct were cloned and characterized in the laboratory of Dr. Jablons at the University of California, San Francisco (San Francisco, Calif.; He et al., Biochem Biophy Res Comm, 2003; and unpublished data). The 6GLI-TKO-luciferase construct (containing 6 repeats of consensus GLI DNA binding sequence) was kindly provided by Dr. Matthias Hebrok's laboratory at the University of California, San Francisco (San Francisco, Calif.).
Further, the specificity of the compounds of the present invention in inhibiting GLI activity and to determine whether these compounds block the interaction between GlLI and TAFII31 as described above, was examined. Specifically, in this analysis, an expression construct linking the 6 repeats of GLI-binding sites (6xGLI BS) to a luciferase reporter gene as a surrogate measurement of the GLI-dependent transcription was used to examine the 6xGLI BS-luciferase activity after treatment of NSCLC A549 cells with compound FN1-8. […] This finding again confirmed that both GLI1 and GLI2 specifically bound to the GLI-binding sites and were functionally active in transcription. […] After treatment of the A549 cells for 16-20 hours with 20 μM, FN1-8 both GLI alone and GLI/TAFII31 induced 6xGLI BS-luciferase transcription was reduced.

## O=C(NCCc1ccc(O)cc1)C1C(c2ccccc2)=NN(c2ccccc2)C1c1ccccc1 (stereo not shown) [FN1-8, N-(2-(4-Hydroxyphenyl)ethyl)-1,3,5-triphenyl-4,5-dihydro-pyrazole-4-carboxyamide]
[1]
  Hh signaling in tumor (RT-PCR): no noticeable changes
[2]
  Hh signaling in tumor (RT-PCR): inhibited
[3]; 50 mg/kg i.p. daily for 2×6 days
  tumor growth: significantly suppressed
[3]; 50 mg/kg i.p. daily for 2×6 days, three weeks after inoculation
  tumor weight: dramatically decreased
[3]; low dose 15 mg/kg i.p. daily for 2×6 days, 24 days after inoculation
  tumor weight: decreased
[4]
  loss of body weight: No noticeable loss of the body weight
[5]; A549 (FIG. 16)
  GLI protein-TAF-induced transcriptional activation: reduces GLI protein-TAF-induced transcriptional activation
[5]; GLI1 cotransfected with TAFII31
  reduction of transcription activity (6xGLI BS-luciferase): about 70%
[5]; GLI2 cotransfected with TAFII31
  reduction of transcription activity (6xGLI BS-luciferase): about 50%
[5]; GLI alone
  reduction of transcription activity (6xGLI BS-luciferase): approximately 30%
